Results from patent publication US10011842B2, “Escherichia coli cell line with thyA knockout, folA knockout, and one or both of folP knockout, and folK knockout” (priority 2013, dated 2018).

Legend:
[1] = system: PEcΔTFP transformed with plasmids containing Pfdhfr-ts (WT) and Pfhppk-dhps (WT); assay: growth inhibition of PEcΔTFP surrogate host (antifolate drug screening); type: cell-based, Escherichia coli BL21(DE3); settings: PEcΔTFP with wild type Pfdhfr-ts and Pfhppk-dhps, minimal media with L-arabinose, 37 degrees Celsius, 16 hours
Method: (§1) Pyrimethamine and sulfathiazole were chosen for this experiment. The 50% inhibitory concentrations (IC50) of each drug were calculated from dose-response growth curves for PEcΔTFP and PEcΔTFPK surrogates transformed with plasmids containing wild type Pfdhfr-ts and Pfhppk-dhps. Cells were incubated in various concentrations of drug in minimal media supplemented with L-arabinose as an inducer and antibiotics for selection of complementing plasmids in 96-well plates at 37 degrees Celsius for 16 hours.

[2] = system: PEcΔTFPK transformed with plasmids containing Pfdhfr-ts (WT) and Pfhppk-dhps (WT); assay: growth inhibition of PEcΔTFPK surrogate host (antifolate drug screening); type: cell-based, Escherichia coli BL21(DE3); settings: PEcΔTFPK with wild type Pfdhfr-ts and Pfhppk-dhps, minimal media with L-arabinose, 37 degrees Celsius, 16 hours
Method: as §1

[3] = system: Plasmodium falciparum parasites; assay: standard hypoxanthine incorporation method in Plasmodium falciparum parasites; type: cell-based; settings: read-out: IC50 (50% inhibitory concentration)

## Nc1ccc(S(=O)(=O)Nc2nccs2)cc1 [sulfathiazole]
[1]
  IC50 from dose-response growth curves compared with the standard method: very similar to values from the standard hypoxanthine incorporation method
[2]
  IC50 from dose-response growth curves compared with the standard method: very similar to values from the standard hypoxanthine incorporation method
[3]
  IC50: 135.4 ± 0.49 µM

## CCc1nc(N)nc(N)c1-c1ccc(Cl)cc1 [pyrimethamine]
[3]
  IC50: 0.041 ± 0.006 µM
